Assay results as given in patent US10409869B2, “(R)- and (S)-1-(3-(3-N,N-dimethylaminocarbonyl)phenoxyl-4-nitrophenyl)-1-ethyl-N,N'-bis (ethylene)phosphoramidate, compositions and methods for their use and preparation” (OBI Pharma, Inc., priority 2015, dated 2019).

Assay: Hematology in monkeys, 2 mg/kg 30-min IV infusion
Type: in vivo, Cynomolgus monkeys
Protocol: TH 3423 and TH 3424 were tested in […] naïve monkeys (1 male and one female for each compound at 2 mg/kg) with 30-min intravenous infusion, TK sampling: on Day 1 and Day 15: 0.25, 0.5, 0.75, 1 and 2 hr post infusion initiation. Serum chemistry and hematology: pre-dose (Day 1), day 5, day 8 (pre-dose), day 15 (pre-dose), day 22 and day 28. Clinical observation: Daily during the study, total 35 days. Food consumption: Daily during the study, total 35 days. Bodyweight measurement: Twice weekly for five weeks.

**Q.** For `C[C@@H](OP(=O)(N1CC1)N1CC1)c1ccc([N+](=O)[O-])c(Oc2cccc(C(=O)N(C)C)c2)c1` (single isomer, unassigned) [TH3423], which MCH (female, Day 15 (pre-dose)) is on record?
**A.** 24.0 pg

**Q.** What about the MCHC (female, Day 15 (pre-dose)) of the same compound?
**A.** 339 g/L

**Q.** And the MCV (female, Day 15 (pre-dose))?
**A.** 70.6 fL

**Q.** And the MPV (female, Day 15 (pre-dose))?
**A.** 8.70 fL

**Q.** And the PCT (female, Day 15 (pre-dose))?
**A.** 0.46%

**Q.** And the PDW (female, Day 15 (pre-dose))?
**A.** 15.10

**Q.** And the PLT (female, Day 15 (pre-dose))?
**A.** 5.33e+11 L⁻¹

**Q.** And the RBC (female, Day 15 (pre-dose))?
**A.** 4.8e+12 L⁻¹

**Q.** And the RDW-CV (female, Day 15 (pre-dose))?
**A.** 10.9%

**Q.** What about the RDW-SD (female, Day 15 (pre-dose)) of the same compound?
**A.** 32.3 fL

**Q.** And the WBC (female, Day 15 (pre-dose))?
**A.** 9.56e+09 L⁻¹

**Q.** What about the abs_basos (female, Day 15 (pre-dose)) of the same compound?
**A.** 1e+07 L⁻¹

**Q.** What about the abs_eos (female, Day 15 (pre-dose)) of the same compound?
**A.** 2.6e+08 L⁻¹

**Q.** What about the abs_lymphs (female, Day 15 (pre-dose)) of the same compound?
**A.** 2.67e+09 L⁻¹

**Q.** And the abs_monos (female, Day 15 (pre-dose))?
**A.** 6e+08 L⁻¹

**Q.** And the abs_neuts (female, Day 15 (pre-dose))?
**A.** 6.02e+09 L⁻¹

**Q.** And the “% BASO” value (male, Day 1 (pre-dose))?
**A.** 0.0%

**Q.** What about the “% EOS” value (male, Day 1 (pre-dose)) of the same compound?
**A.** 2.4%

**Q.** And the “% MONO” value (male, Day 1 (pre-dose))?
**A.** 5.5%

**Q.** What about the “% NEUT” value (male, Day 1 (pre-dose)) of the same compound?
**A.** 55.4%

**Q.** And the HCT (male, Day 1 (pre-dose))?
**A.** 40.8%

**Q.** What about the HGB (male, Day 1 (pre-dose)) of the same compound?
**A.** 132 g/L

**Q.** What about the LYM (male, Day 1 (pre-dose)) of the same compound?
**A.** 36.7%

**Q.** And the MCH (male, Day 1 (pre-dose))?
**A.** 25.4 pg

**Q.** What about the MCHC (male, Day 1 (pre-dose)) of the same compound?
**A.** 324 g/L

**Q.** What about the MCV (male, Day 1 (pre-dose)) of the same compound?
**A.** 78.3 fL

**Q.** What about the MPV (male, Day 1 (pre-dose)) of the same compound?
**A.** 10.2 fL

**Q.** What about the PCT (male, Day 1 (pre-dose)) of the same compound?
**A.** 0.365%

**Q.** And the PDW (male, Day 1 (pre-dose))?
**A.** 15.1

**Q.** What about the PLT (male, Day 1 (pre-dose)) of the same compound?
**A.** 3.58e+11 L⁻¹

**Q.** What about the RBC (male, Day 1 (pre-dose)) of the same compound?
**A.** 5.2e+12 L⁻¹

**Q.** What about the RDW-CV (male, Day 1 (pre-dose)) of the same compound?
**A.** 11.6%

**Q.** What about the RDW-SD (male, Day 1 (pre-dose)) of the same compound?
**A.** 38.2 fL

**Q.** What about the WBC (male, Day 1 (pre-dose)) of the same compound?
**A.** 5.33e+09 L⁻¹

**Q.** What about the abs_basos (male, Day 1 (pre-dose)) of the same compound?
**A.** 0 L⁻¹

**Q.** And the abs_eos (male, Day 1 (pre-dose))?
**A.** 1.3e+08 L⁻¹

**Q.** What about the abs_lymphs (male, Day 1 (pre-dose)) of the same compound?
**A.** 1.95e+09 L⁻¹

**Q.** And the abs_monos (male, Day 1 (pre-dose))?
**A.** 2.9e+08 L⁻¹

**Q.** And the abs_neuts (male, Day 1 (pre-dose))?
**A.** 2.96e+09 L⁻¹

**Q.** And the “% BASO” value (male, Day 8 (pre-dose))?
**A.** 0.7%

**Q.** And the “% EOS” value (male, Day 8 (pre-dose))?
**A.** 3.0%

**Q.** What about the “% MONO” value (male, Day 8 (pre-dose)) of the same compound?
**A.** 0.0%

**Q.** And the “% NEUT” value (male, Day 8 (pre-dose))?
**A.** 80.9%

**Q.** And the HCT (male, Day 8 (pre-dose))?
**A.** 44.70%

**Q.** What about the HGB (male, Day 8 (pre-dose)) of the same compound?
**A.** 146.00 g/L

**Q.** What about the LYM (male, Day 8 (pre-dose)) of the same compound?
**A.** 15.4%

**Q.** What about the MCH (male, Day 8 (pre-dose)) of the same compound?
**A.** 24.90 pg

**Q.** And the MCHC (male, Day 8 (pre-dose))?
**A.** 327.00 g/L

**Q.** What about the MCV (male, Day 8 (pre-dose)) of the same compound?
**A.** 76.20 fL

**Q.** What about the MPV (male, Day 8 (pre-dose)) of the same compound?
**A.** 10.60 fL

**Q.** And the PCT (male, Day 8 (pre-dose))?
**A.** 0.52%

**Q.** And the PDW (male, Day 8 (pre-dose))?
**A.** 15.70

**Q.** What about the PLT (male, Day 8 (pre-dose)) of the same compound?
**A.** 4.9e+11 L⁻¹

**Q.** What about the RBC (male, Day 8 (pre-dose)) of the same compound?
**A.** 5.86e+12 L⁻¹

**Q.** What about the RDW-CV (male, Day 8 (pre-dose)) of the same compound?
**A.** 11.90%

**Q.** What about the RDW-SD (male, Day 8 (pre-dose)) of the same compound?
**A.** 38.00 fL

**Q.** What about the WBC (male, Day 8 (pre-dose)) of the same compound?
**A.** 1.166e+10 L⁻¹

**Q.** What about the abs_basos (male, Day 8 (pre-dose)) of the same compound?
**A.** 8e+07 L⁻¹

**Q.** What about the abs_eos (male, Day 8 (pre-dose)) of the same compound?
**A.** 3.5e+08 L⁻¹

**Q.** What about the abs_lymphs (male, Day 8 (pre-dose)) of the same compound?
**A.** 1.79e+09 L⁻¹

**Q.** And the abs_monos (male, Day 8 (pre-dose))?
**A.** 0 L⁻¹

**Q.** What about the abs_neuts (male, Day 8 (pre-dose)) of the same compound?
**A.** 9.44e+09 L⁻¹
